This passage reports inhibition and IC50 results from patent publication US11352359B2, “PI3K protein kinase inhibitors” (Rhizen Pharmaceuticals SA, priority 2013, dated 2022).

As usually defined, the inhibition is the relative decrease from the control value, in per cent. Higher therefore signals a response far below the control. A word on the IC50: it is the concentration that inhibits the measured activity by half. Read a low IC50 as greater potency in that assay.

What all share (type): biochemical
The target in one assay is PI3Kδ (Homo sapiens, UniProt O00329). The experiment in a line: Fluorescent determination of PI3Kinase enzyme activity (HTRF), PI3Kδ. The following applies: for inhibition at 0.1 µM: 100 nM (underlined values: 300 nM). From the text:
(§1) Fluorescent Determination of PI3Kinase Enzyme Activity
(§2) Phosphoinositide 3 kinases (PI3K) belong to a class of Lipid kinases that play a critical role in the regulation of several key cellular processes. The PI3K are capable of phosphorylating the 3-hydroxy position of phosphoinositols thereby generating second messengers involved in downstream signalling events. The homogenous time resolved fluorescence (HTRF) assay allows detection of 3,4,5-triphosphate (PIP3) formed as a result of phosphorylation of phosphotidylinositol 4,5-biphosphate (PIP2) by PI3K isoforms such as α, […], γ or δ.
(§3) PI3K isoform activity for α, β, γ or δ is to be determined using a PI3K human HTRF™ Assay Kit (Millipore, Billerica, Mass.) with modifications. All incubations were carried out at room temperature. Briefly, 0.5 μl of 40× inhibitor (in 100% DMSO) or 100% DMSO were added to each well of a 384-well black plate (Greiner Bio-One, Monroe, N.C.) containing 14.5 μl 1× reaction buffer/PIP2 (10 mM MgCl2, 5 mM DTT, 1.38 μM PIP2) mix with or without enzyme and incubated for 10 min. After the initial incubation, 5 μl/well of 400 μM ATP was added and incubated for an additional 30 minutes. Reaction was terminated by adding 5 μl/well stop solution (Millipore, Billerica, Mass.). Five microliters of detection mix (Millipore, Billerica, Mass.) were then added to each well and was incubated for 6-18 h in the dark. HRTF ratio was measured on a microplate reader (BMG Labtech, Germany) at an excitation wavelength of 337 nm and emission wavelengths of 665 and 620 nm with an integration time of 400 μsec. Data was analyzed using Graphpad Prism (Graphpad software; San Diego Calif.) for IC50 determination).
In general terms: In TR-FRET formats the signal depends on donor and acceptor labels being close together.

The target of a further assay is PI3Kγ (Homo sapiens, UniProt P48736). The experiment in a line: Fluorescent determination of PI3Kinase enzyme activity (HTRF), PI3Kγ. The following applies: for inhibition at 0.1 µM: 100 nM (underlined values: 300 nM).
Excerpt: as §1, §2, §3

The next assay addresses PI3Kβ (Homo sapiens, UniProt P42338). Kind of assay: Fluorescent determination of PI3Kinase enzyme activity (HTRF), PI3Kβ.
Excerpt: as §1, §2, §3

The target in the next assay is PI3Kα (Homo sapiens, UniProt P42336). The experiment in a line: Fluorescent determination of PI3Kinase enzyme activity (HTRF), PI3Kα.
Excerpt: as §1, §2, §3

Sequence of PI3Kγ (P48736 whole entry): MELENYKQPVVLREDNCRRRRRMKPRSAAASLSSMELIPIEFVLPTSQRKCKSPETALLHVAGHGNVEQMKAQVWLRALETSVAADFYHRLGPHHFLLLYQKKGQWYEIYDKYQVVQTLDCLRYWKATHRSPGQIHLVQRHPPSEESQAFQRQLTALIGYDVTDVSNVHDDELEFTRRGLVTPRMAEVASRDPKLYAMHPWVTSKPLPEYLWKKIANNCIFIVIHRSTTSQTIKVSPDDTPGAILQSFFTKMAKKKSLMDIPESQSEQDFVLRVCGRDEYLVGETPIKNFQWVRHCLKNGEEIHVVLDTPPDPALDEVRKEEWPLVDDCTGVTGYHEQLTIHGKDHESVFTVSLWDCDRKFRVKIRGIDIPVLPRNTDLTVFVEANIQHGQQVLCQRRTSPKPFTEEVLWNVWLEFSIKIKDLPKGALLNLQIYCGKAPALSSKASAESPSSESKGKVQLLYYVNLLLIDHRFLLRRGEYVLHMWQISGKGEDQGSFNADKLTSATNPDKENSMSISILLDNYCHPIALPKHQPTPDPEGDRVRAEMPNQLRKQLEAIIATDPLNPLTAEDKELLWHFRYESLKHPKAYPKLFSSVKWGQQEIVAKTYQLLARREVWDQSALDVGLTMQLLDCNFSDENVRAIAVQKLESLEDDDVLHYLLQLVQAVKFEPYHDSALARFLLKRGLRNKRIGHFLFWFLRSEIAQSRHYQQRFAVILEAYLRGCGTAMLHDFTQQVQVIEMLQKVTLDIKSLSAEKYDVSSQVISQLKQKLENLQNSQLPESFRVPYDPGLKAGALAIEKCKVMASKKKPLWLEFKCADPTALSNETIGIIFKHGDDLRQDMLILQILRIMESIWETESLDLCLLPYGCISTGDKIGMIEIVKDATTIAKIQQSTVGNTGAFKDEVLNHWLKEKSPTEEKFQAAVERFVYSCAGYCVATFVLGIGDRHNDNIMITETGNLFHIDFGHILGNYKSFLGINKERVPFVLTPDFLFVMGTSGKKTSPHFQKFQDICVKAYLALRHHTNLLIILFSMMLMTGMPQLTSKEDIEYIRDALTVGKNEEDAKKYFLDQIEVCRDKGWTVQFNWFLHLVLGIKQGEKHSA
Sequence of PI3Kβ (P42338 whole entry): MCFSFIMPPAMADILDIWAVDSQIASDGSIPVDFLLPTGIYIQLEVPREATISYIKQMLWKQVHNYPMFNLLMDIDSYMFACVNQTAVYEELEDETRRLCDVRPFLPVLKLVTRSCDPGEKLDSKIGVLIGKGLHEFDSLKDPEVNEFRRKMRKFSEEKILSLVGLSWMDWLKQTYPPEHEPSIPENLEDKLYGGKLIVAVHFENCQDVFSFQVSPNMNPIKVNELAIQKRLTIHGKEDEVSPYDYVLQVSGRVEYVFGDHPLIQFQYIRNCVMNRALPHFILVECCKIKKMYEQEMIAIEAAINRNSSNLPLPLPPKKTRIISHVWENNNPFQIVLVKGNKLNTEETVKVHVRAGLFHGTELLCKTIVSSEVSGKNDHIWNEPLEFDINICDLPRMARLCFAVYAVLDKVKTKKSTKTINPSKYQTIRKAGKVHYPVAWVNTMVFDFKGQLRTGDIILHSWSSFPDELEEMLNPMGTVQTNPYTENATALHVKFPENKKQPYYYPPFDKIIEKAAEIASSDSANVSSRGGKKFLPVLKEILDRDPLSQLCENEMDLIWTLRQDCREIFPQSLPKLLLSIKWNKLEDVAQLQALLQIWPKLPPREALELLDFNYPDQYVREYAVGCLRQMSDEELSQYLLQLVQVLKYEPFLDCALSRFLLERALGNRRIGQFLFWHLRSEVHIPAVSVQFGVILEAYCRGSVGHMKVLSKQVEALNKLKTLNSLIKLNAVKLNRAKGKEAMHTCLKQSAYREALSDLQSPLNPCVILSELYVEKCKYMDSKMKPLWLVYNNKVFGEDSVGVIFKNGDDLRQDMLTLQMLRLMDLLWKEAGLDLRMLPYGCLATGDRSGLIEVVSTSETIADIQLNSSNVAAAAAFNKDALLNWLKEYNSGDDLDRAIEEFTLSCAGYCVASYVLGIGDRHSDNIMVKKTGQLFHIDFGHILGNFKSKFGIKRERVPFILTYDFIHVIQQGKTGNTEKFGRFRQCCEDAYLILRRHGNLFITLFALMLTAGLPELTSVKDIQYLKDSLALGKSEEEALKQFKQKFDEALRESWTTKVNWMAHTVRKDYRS
Sequence of PI3Kβ (P27986 whole entry partner): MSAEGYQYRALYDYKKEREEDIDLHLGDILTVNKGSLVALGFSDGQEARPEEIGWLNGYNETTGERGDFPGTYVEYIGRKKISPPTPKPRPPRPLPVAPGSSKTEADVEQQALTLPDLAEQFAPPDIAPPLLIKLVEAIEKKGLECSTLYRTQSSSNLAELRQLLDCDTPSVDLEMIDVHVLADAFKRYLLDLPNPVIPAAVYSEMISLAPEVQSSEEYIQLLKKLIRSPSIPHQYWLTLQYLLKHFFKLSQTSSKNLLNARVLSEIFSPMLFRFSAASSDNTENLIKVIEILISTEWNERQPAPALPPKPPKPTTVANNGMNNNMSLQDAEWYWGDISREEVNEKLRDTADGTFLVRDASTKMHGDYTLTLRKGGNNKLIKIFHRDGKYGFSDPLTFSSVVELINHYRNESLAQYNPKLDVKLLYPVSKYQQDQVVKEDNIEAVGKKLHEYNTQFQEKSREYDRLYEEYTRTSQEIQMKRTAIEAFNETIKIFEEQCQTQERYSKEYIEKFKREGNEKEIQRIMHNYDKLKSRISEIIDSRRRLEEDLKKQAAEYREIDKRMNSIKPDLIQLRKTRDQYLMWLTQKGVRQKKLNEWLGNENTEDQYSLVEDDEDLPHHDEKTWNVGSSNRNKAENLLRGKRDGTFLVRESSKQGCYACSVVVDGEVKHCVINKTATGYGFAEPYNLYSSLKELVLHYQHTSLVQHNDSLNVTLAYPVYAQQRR
Sequence of PI3Kδ (O00329 whole entry): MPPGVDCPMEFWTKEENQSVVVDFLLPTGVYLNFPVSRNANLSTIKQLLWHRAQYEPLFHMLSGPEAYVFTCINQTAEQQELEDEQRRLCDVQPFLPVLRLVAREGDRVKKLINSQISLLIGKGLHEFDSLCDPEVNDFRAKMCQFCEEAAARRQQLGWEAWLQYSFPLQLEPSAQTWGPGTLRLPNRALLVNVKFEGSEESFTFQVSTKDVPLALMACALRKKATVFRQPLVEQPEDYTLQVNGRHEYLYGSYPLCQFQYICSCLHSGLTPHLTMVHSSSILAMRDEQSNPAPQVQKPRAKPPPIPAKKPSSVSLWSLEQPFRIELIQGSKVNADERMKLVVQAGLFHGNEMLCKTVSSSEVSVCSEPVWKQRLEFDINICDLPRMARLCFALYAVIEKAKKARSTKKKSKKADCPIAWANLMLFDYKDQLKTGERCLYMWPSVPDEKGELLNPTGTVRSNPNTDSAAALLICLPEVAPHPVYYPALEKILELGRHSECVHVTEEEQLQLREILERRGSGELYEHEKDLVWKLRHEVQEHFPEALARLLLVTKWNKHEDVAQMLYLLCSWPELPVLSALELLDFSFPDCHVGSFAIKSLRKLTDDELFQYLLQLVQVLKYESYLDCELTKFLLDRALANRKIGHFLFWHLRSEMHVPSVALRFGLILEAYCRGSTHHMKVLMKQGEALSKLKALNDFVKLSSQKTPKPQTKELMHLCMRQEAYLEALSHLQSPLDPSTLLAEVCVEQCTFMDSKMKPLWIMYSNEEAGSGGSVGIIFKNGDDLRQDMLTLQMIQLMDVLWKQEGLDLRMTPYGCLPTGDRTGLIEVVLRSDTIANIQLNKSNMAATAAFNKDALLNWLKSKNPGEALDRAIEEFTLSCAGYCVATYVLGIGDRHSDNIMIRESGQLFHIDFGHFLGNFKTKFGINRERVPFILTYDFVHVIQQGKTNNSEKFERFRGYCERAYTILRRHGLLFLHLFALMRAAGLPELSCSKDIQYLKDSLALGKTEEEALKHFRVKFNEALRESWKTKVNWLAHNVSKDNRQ
Sequence of PI3Kδ (P27986 whole entry partner): as the sequence (P27986 whole entry partner) above
Sequence of PI3Kα (P42336 whole entry): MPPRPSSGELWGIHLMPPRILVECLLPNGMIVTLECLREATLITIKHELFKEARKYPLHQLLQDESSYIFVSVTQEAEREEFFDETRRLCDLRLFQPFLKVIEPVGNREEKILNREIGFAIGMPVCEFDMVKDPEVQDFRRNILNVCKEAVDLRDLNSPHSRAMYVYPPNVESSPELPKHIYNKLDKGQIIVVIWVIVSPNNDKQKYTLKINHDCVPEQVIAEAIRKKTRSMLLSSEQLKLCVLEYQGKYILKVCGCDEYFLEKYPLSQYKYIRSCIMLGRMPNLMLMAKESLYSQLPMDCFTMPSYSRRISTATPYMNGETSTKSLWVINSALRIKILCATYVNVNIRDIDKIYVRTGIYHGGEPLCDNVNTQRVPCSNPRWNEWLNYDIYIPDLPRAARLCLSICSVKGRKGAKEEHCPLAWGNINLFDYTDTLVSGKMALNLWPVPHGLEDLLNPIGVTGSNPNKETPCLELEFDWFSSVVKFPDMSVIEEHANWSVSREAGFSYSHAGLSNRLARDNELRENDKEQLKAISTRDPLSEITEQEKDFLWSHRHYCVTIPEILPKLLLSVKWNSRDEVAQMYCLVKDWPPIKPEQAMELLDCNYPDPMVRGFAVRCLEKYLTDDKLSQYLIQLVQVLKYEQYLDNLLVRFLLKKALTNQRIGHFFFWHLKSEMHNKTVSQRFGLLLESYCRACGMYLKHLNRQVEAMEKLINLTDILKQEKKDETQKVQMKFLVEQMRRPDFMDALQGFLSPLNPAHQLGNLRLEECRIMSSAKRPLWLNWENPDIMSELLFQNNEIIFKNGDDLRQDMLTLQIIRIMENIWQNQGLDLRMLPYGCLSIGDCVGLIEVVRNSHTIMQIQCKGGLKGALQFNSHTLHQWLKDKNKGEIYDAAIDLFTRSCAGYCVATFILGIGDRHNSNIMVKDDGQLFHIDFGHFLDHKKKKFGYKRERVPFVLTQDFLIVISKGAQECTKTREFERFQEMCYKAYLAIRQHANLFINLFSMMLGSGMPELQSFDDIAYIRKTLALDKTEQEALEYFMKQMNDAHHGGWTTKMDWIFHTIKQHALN
Sequence of PI3Kα (P27986 whole entry partner): as the sequence (P27986 whole entry partner) above

In the case of `CC(C)Oc1ccc(-c2nn(C(C)c3cc4cccc(F)c4c(=O)n3-c3ccccc3)c3ncnc(N)c23)cc1F` (stereo not drawn) [Example 2, 3-(1-(4-amino-3-(3-fluoro-4-isopropoxyphenyl)-1H-pyrazolo[3,4-d]pyrimidin-1-yl)ethyl)-8-fluoro-2-phenylisoquinolin-1(2H)-one], the inhibition at 0.1 µM at PI3Kδ and at PI3Kγ was 0 to 20% in each case. The inhibition at 1 µM against PI3Kβ lay in the range of 10 to 20%; on PI3Kα it was 0 to 10%.
Turning to `CC(C)Oc1ccc(-c2nn(C(C)c3nc4cccc(F)c4c(=O)n3-c3ccccc3)c3ncnc(N)c23)cc1F` (stereo not drawn) [Example 3, 2-(1-(4-amino-3-(3-fluoro-4-isopropoxyphenyl)-1H-pyrazolo[3,4-d]pyrimidin-1-yl)ethyl)-5-fluoro-3-phenylquinazolin-4(3H)-one], the inhibition at 0.1 µM against PI3Kδ and against PI3Kγ was 0 to 20% throughout. In addition, the inhibition at 1 µM against PI3Kβ lay in the range of 10 to 20%; against PI3Kα, 0 to 10%.
Take `CC(C)Oc1ccc(-c2nn(C(C)c3nc4ccc(F)cc4c(=O)n3-c3ccccc3)c3ncnc(N)c23)cc1F` (stereo not drawn) [Example 4, 2-(1-(4-amino-3-(3-fluoro-4-isopropoxyphenyl)-1H-pyrazolo[3,4-d]pyrimidin-1-yl)ethyl)-6-fluoro-3-phenylquinazolin-4(3H)-one]: the inhibition at 0.1 µM on PI3Kδ was 0 to 20%; on PI3Kγ, 40 to 60%. In addition, the inhibition at 1 µM was 20 to 40% on PI3Kβ and 0 to 10% on PI3Kα.
With `CC(C)Oc1ccc(-c2nn(C(C)c3cc4ccccc4c(=O)n3-c3ccccc3)c3ncnc(N)c23)cc1F` (stereo not drawn) [Example 5, 3-(1-(4-amino-3-(3-fluoro-4-isopropoxyphenyl)-1H-pyrazolo[3,4-d]pyrimidin-1-yl)ethyl)-2-phenylisoquinolin-1(2H)-one], the inhibition at 0.1 µM on PI3Kδ is 80 to 100%; against PI3Kγ it was 60 to 80%. Also, the figures for the inhibition at 1 µM against PI3Kβ and on PI3Kα were 10 to 20% and 0 to 10%, respectively.
Take `CC(C)Oc1ccc(-c2nn([C@@H](C)c3cc4ccccc4c(=O)n3-c3ccccc3)c3ncnc(N)c23)cc1F` [Example 5a, (+)-3-(1-(4-amino-3-(3-fluoro-4-isopropoxyphenyl)-1H-pyrazolo[3,4-d]pyrimidin-1-yl)ethyl)-2-phenylisoquinolin-1(2H)-one]: the values for the IC50 against PI3Kδ and against PI3Kγ were 3.05 nM and 22.2 nM, respectively. Moreover, the inhibition at 0.1 µM fell in the range of 80 to 100% against PI3Kδ and 60 to 80% on PI3Kγ. The results for the inhibition at 1 µM against PI3Kβ and against PI3Kα were 20 to 40% and 0 to 10%, respectively.
On to `CC(C)Oc1ccc(-c2nn(C(C)c3nc4ccccc4c(=O)n3-c3ccccc3)c3ncnc(N)c23)cc1F` (stereo not drawn) [Example 6, 2-(1-(4-amino-3-(3-fluoro-4-isopropoxyphenyl)-1H-pyrazolo[3,4-d]pyrimidin-1-yl)ethyl)-3-phenylquinazolin-4(3H)-one], for which the figures for the inhibition at 0.1 µM on PI3Kδ and against PI3Kγ were 80 to 100% and 40 to 60%, respectively. In addition, the inhibition at 1 µM against PI3Kβ and against PI3Kα was 0 to 10% in each case.
Consider `CC(C)Oc1ccc(-c2nn([C@@H](C)c3nc4ccccc4c(=O)n3-c3ccccc3)c3ncnc(N)c23)cc1F` [Example 6a, (+)-2-(1-(4-amino-3-(3-fluoro-4-isopropoxyphenyl)-1H-pyrazolo[3,4-d]pyrimidin-1-yl)ethyl)-3-phenylquinazolin-4(3H)-one], for which the values for the IC50 against PI3Kδ and at PI3Kγ were 2.74 nM and 15 nM, respectively. The inhibition at 0.1 µM against PI3Kδ lay in the range of 80 to 100%; against PI3Kγ, 40 to 60%. The results for the inhibition at 1 µM against PI3Kβ and on PI3Kα were 20 to 40% and 0 to 10%, respectively.
`CC(c1cc2ccccc2c(=O)n1-c1ccccc1)n1nc(-c2ccc(O)c(F)c2)c2c(N)ncnc21` (stereo not drawn) [Example 7, 3-(1-(4-amino-3-(3-fluoro-4-hydroxyphenyl)-1H-pyrazolo[3,4-d]pyrimidin-1-yl)ethyl)-2-phenylisoquinolin-1(2H)-one]: the inhibition at 0.1 µM at PI3Kδ was in the range of 40 to 60%; at PI3Kγ, 20 to 40%. For the same molecule, the inhibition at 1 µM lay in the range of 20 to 40% against PI3Kβ and 10 to 20% at PI3Kα.
For the molecule `C[C@@H](c1cc2ccccc2c(=O)n1-c1ccccc1)n1nc(-c2ccc(O)c(F)c2)c2c(N)ncnc21` [Example 7a, (+)-3-(1-(4-amino-3-(3-fluoro-4-hydroxyphenyl)-1H-pyrazolo[3,4-d]pyrimidin-1-yl)ethyl)-2-phenylisoquinolin-1(2H)-one], the IC50 at PI3Kδ amounted to 13.3 nM; against PI3Kγ, 57.7 nM. Also, the inhibition at 0.1 µM at PI3Kδ and on PI3Kγ was 60 to 80% each time. Besides, the inhibition at 1 µM on PI3Kβ fell in the range of 20 to 40%; against PI3Kα, 0 to 10%.
Turning to `COc1ccc(-c2nn([C@@H](C)c3cc4ccccc4c(=O)n3-c3ccccc3)c3ncnc(N)c23)cc1NS(C)(=O)=O` [Example 9a, (+)—N-(5-(4-amino-1-(1-(1-oxo-2-phenyl-1,2-dihydroisoquinolin-3-yl)ethyl)-1H-pyrazolo[3,4-d]pyrimidin-3-yl)-2-methoxyphenyl)methanesulfonamide], the IC50 against PI3Kδ was found to be 16.2 nM; at PI3Kγ, 203 nM. Also, the inhibition at 0.1 µM at PI3Kδ was in the range of 80 to 100%; on PI3Kγ, 40 to 60%. For the same molecule, the inhibition at 1 µM on PI3Kβ was in the range of 20 to 40%; against PI3Kα it was 0 to 10%.
With `COc1ccc(-c2nn(C(C)c3nc4ccccc4c(=O)n3-c3ccccc3)c3ncnc(N)c23)cc1NS(C)(=O)=O` (stereo not drawn) [Example 12, N-(5-(4-amino-1-(1-(4-oxo-3-phenyl-3,4-dihydroquinazolin-2-yl)ethyl)-1H-pyrazolo[3,4-d]pyrimidin-3-yl)-2-methoxyphenyl)methanesulfonamide], the inhibition at 0.1 µM is 0 to 20% against PI3Kδ and 20 to 40% at PI3Kγ. Moreover, the inhibition at 1 µM against PI3Kβ was 20 to 40%; against PI3Kα, 0 to 10%.
With `C[C@@H](c1cc2cccc(Cl)c2c(=O)n1-c1ccccc1)n1nc(-c2ccc(O)c(F)c2)c2c(N)ncnc21` [Example 14a, (+)-3-(1-(4-amino-3-(3-fluoro-4-hydroxyphenyl)-1H-pyrazolo[3,4-d]pyrimidin-1-yl)ethyl)-8-chloro-2-phenylisoquinolin-1(2H)-one], the half-maximal inhibitory concentration (IC50) on PI3Kδ came out at 4.2 nM; on PI3Kγ it was 19.5 nM. Moreover, the inhibition at 0.1 µM at PI3Kδ and on PI3Kγ was 80 to 100% each time. Moreover, the inhibition at 1 µM at PI3Kβ was 10 to 20%; at PI3Kα, 0 to 10%.
For `C[C@@H](c1cc2cccc(F)c2c(=O)n1-c1ccccc1)n1nc(-c2ccc(O)c(F)c2)c2c(N)ncnc21` [Example 15a, (+)-3-(1-(4-amino-3-(3-fluoro-4-hydroxyphenyl)-1H-pyrazolo[3,4-d]pyrimidin-1-yl)ethyl)-8-fluoro-2-phenylisoquinolin-1(2H)-one], the IC50 turned out to be 9.99 nM at PI3Kδ and 52 nM against PI3Kγ. Moreover, the inhibition at 0.1 µM against PI3Kδ fell in the range of 80 to 100%; against PI3Kγ, 40 to 60%. Also, the inhibition at 1 µM lay within 10 to 20% against PI3Kβ and 0 to 10% at PI3Kα.
Consider `C[C@@H](c1nc2cccc(F)c2c(=O)n1-c1ccccc1)n1nc(-c2ccc(O)c(F)c2)c2c(N)ncnc21` [Example 16a, (+)-2-(1-(4-amino-3-(3-fluoro-4-hydroxyphenyl)-1H-pyrazolo[3,4-d]pyrimidin-1-yl)ethyl)-5-fluoro-3-phenylquinazolin-4(3H)-one], for which the concentration for half-maximal inhibition (IC50) against PI3Kδ worked out at 33.3 nM; on PI3Kγ, 122 nM. Also, the inhibition at 0.1 µM against PI3Kδ lay within 80 to 100%; on PI3Kγ, 20 to 40%. Besides, the inhibition at 1 µM at PI3Kβ was in the range of 10 to 20%; against PI3Kα, 0 to 10%.
`CC(c1cc2cccc(Cl)c2c(=O)n1-c1ccccc1)n1nc(-c2ccc(OC(F)F)c(F)c2)c2c(N)ncnc21` (stereo not drawn) [Example 17, 3-(1-(4-amino-3-(4-(difluoromethoxy)-3-fluorophenyl)-1H-pyrazolo[3,4-d]pyrimidin-1-yl)ethyl)-8-chloro-2-phenylisoquinolin-1(2H)-one]: the inhibition at 0.1 µM on PI3Kδ and against PI3Kγ was 80 to 100% each time. Besides, the inhibition at 1 µM against PI3Kβ fell in the range of 40 to 60%; against PI3Kα it was 20 to 40%.
As for `C[C@@H](c1cc2cccc(Cl)c2c(=O)n1-c1ccccc1)n1nc(-c2ccc(OC(F)F)c(F)c2)c2c(N)ncnc21` [Example 17a, (+)-3-(1-(4-amino-3-(4-(difluoromethoxy)-3-fluorophenyl)-1H-pyrazolo[3,4-d]pyrimidin-1-yl)ethyl)-8-chloro-2-phenylisoquinolin-1(2H)-one], the inhibition at 0.1 µM lay within 20 to 40% against PI3Kδ and 0 to 20% against PI3Kγ. The inhibition at 1 µM on PI3Kβ and on PI3Kα was 0 to 10% in each case.
